According to patent publication US8343580B2, “Organometallic compounds” (Rohm and Haas Electronic Materials LLC, priority 2009, dated 2013):

Assays:
[1] = Solubility in organic solvents at room temperature by direct dissolution method; format: physicochemical; conditions: for Solubility: room temperature; for Solubility in aromatic solvents: toluene and tetralin, by NMR spectroscopy and direct dissolution method
Experimental: The solubility of N,N′-di-tert-butylacetamidinato-N,N′-di-tert-butylacetamidinatocarbamoyl dicarbonyl Ruthenium(II) (“Ru-Cbm-Invention”, from Example 1) and bis(N,N′-di-tert-butylacetamidinato) dicarbonyl Ruthenium(II) (“Ru-AMD-Comparative”) were determined at room temperature in a variety of solvents by direct dissolution method. The solid Ru-AMD-Comparative compound was prepared by the synthetic route described in R. Gordon et al., The Open Inorganic Chemistry Journal, 2 (2008) 11. Compounds with less than 0.01 wt % dissolved were considered to be sparingly soluble.

[2] = Decomposition temperature by accelerated rate calorimetry (ARC); format: physicochemical; conditions: ARC adiabatic calorimeter, self-heating exceeding 0.02° C./minute
Experimental: The decomposition temperature of N,N′-di-tert-butylacetamidinato-N,N′-di-tert-butylacetamidinatocarbamoyl dicarbonyl Ruthenium(II) (“Ru(AMD)-Cbm”) was determined using accelerated rate calorimetry (ARC™ adiabatic calorimeter available from Arthur D. Little). A sample of the compound was placed in a spherical bomb that was connected to a sealed pressure measurement system. A thermocouple was attached to the outside of the bomb and the bomb was placed in the center of the calorimeter assembly. The calorimeter assembly has 3 zones, each zone having its own thermocouple and heaters. The ARC™ calorimeter uses a heat-wait-search-exotherm program. The calorimeter and the sample were heated to a start temperature. The sample and calorimeter temperatures equilibrated during the wait portion of the program. Next, the calorimeter monitored the sample for self-heating (exceeding 0.02° C./minute) during the search portion of the program to determine the onset temperature of the exotherm. To be useful in ALD processes, a precursor should not decompose at temperatures at or below 140° C., and preferably not at or below 150° C.

[3] = Mixture of Diphenyl ether and Biphenyl
[4] = Polyethylene glycol dibutyl ether

Row | Solubility ([1]; Cyclohexylbenzene) [wt %] | Solubility ([1]; Cyclohexylbenzene:LAB (1:1)) [wt %] | Solubility ([1]; LAB) [wt %] | Solubility [1, 3] [wt %] | Solubility ([1]; Pentamethyldiethylenetriamine) [wt %] | Solubility [1, 4] [wt %] | Solubility ([1]; THF) [wt %] | Solubility ([1]; Tetralin) [wt %] | Solubility ([1]; Toluene) [wt %] | Solubility ([1]; n-Octane) | Solubility in aromatic solvents [1] | Temperature up to which the sample was stable (decomposition, onset of exotherm) [2] | Increase of solubility as compared to Ru-AMD ([1]; in tetrahydrofuran) [fold] | SMILES
1 | <0.01 | <0.01 | <0.01 | <0.01 | <0.01 | <0.01 | 0.7 | <0.01 | <0.01 | insoluble | little to no solubility |  |  | CC(=NC(C)(C)C)[N]([Ru][N](C(C)=NC(C)(C)C)C(C)(C)C)C(C)(C)C.[C-]#[O+].[C-]#[O+] [Ru-AMD, bis(N,N′-di-tert-butylacetamidinato) dicarbonyl Ruthenium(II), reference compound]
2 | 6.0 | 6.0 | 3.0 | 12.0 | 15.0 | 8.0 | 43.6 | 8.5 | 38.5 | 2.3 wt % | soluble | up to 250 °C | 62 | CC1=[N+](C(C)(C)C)[Ru-4]2([C]#[O+])([C]#[O+])([C](=O)N1C(C)(C)C)[N](C(C)(C)C)C(C)=[N+]2C(C)(C)C [Ru-Cbm, N,N′-di-tert-butylacetamidinato-N,N′-di-tert-butylacetamidinatocarbamoyl dicarbonyl Ruthenium(II)]
